Experimental data taken from PMC6934184, “Selective DNA-PKcs inhibition extends the therapeutic index of localized radiotherapy and chemotherapy” (The Journal of Clinical Investigation, 2019).

Target: T1, CAMKK1 (CAMKKA) (Homo sapiens, UniProt Q8N5S9)
T1 construct: purchased Thermo Fisher Scientific (Life Technologies) SelectScreen
Assay: SelectScreen LanthaScreen
Type: binding
Conditions: read-out: % displacement
How it was run: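 Percent values come from Thermo SelectScreen profiling of NU5455, combining activity and binding assays. CSF1R was run in Z'LYTE format at Km app ATP, and CAMK1 in Adapta format with ATP listed at 10.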

T1 sequence (Q8N5S9 whole entry): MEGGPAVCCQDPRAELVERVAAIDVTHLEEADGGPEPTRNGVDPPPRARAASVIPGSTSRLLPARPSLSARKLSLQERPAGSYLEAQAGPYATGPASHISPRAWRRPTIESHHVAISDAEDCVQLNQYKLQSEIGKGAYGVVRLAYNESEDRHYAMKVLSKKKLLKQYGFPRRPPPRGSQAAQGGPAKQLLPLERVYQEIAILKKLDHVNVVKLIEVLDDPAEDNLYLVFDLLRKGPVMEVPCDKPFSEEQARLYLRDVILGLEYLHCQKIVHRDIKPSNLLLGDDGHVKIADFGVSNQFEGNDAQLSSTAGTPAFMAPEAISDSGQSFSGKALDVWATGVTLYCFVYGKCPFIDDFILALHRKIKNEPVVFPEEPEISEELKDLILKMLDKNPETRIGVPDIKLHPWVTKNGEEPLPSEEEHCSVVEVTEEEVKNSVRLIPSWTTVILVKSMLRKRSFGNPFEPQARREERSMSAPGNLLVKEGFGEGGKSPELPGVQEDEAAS

For `CN(C(=O)CN1CCOCC1)c1ccc2sc3c(-c4cccc5c(=O)cc(N6CC7CCC(C6)O7)oc45)cccc3c2c1` [NU5455], the inhibition at 1 µM was -3.8%.
